Test: pKa value was determined
Format: physicochemical

pKa: 11.4
SMILES: C1CCN2C[C@@H]3C[C@@H](CN4CCCC[C@@H]34)[C@H]2C1 [SPARTEINE]
